Measured values as given in US10988456B2, “O-aminoheteroaryl alkynyl-containing compound, preparation method therefor, and use thereof” (SHANGHAI INSTITUTE OF MATERIA MEDICA, CHINESE ACADEMY OF …, priority 2017, dated 2021).
Entries after “also recorded” stand apart in the source; their conditions may differ. Values belong to the compound of their own block, whether it stands above or below them.

Columns and labels:
[1] = target: FGFR1 (Homo sapiens, UniProt P11362); test: Inhibition of receptor tyrosine kinase activity at molecular level (ELISA, Poly(Glu,Tyr)4:1 substrate phosphorylation); assay type: biochemical; settings: 10 nM compound; average of two independent experiments
Sequence of FGFR1 (P11362 22-822): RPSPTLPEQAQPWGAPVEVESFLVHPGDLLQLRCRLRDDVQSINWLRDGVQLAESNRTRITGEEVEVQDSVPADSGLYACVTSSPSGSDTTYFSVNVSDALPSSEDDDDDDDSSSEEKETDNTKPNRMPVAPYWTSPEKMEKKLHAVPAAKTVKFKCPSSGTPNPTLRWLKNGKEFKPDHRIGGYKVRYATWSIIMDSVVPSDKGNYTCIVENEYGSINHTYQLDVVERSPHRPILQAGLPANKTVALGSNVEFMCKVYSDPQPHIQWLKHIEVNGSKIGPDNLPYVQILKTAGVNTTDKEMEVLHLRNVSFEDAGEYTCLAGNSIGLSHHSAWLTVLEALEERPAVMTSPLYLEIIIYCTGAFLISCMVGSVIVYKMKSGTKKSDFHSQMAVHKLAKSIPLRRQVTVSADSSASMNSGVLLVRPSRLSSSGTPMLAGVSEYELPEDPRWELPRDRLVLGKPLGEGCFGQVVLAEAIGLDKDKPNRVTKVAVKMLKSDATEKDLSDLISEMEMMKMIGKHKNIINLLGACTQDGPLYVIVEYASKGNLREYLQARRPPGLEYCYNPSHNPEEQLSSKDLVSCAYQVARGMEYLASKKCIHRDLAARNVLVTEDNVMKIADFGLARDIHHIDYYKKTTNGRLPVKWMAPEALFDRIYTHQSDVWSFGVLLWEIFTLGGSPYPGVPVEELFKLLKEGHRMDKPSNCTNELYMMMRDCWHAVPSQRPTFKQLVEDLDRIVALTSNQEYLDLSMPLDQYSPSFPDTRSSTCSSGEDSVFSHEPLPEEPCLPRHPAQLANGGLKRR
Experimental: (§1) Enzyme reaction substrate Poly(Glu, Tyr)4:1 was diluted with potassium-free PBS (10 mM sodium phosphate buffer, 150 mM NaCl, pH 7.2-7.4) to 20 μg/mL. […] The reaction was conducted under 37° C. for 12-16 hours. After the liquid was removed from the wells, the plate was washed three times with 200 μL/well of T-PBS (PBS containing 0.1% Tween-20), each for 5 minutes. The enzyme plate was dried in 37° C. dryer for 1-2 hours.
(§2) 50 μL ATP solution diluted with buffer (50 mM HEPES pH 7.4, 50 mM MgCl2, 0.5 mM MnCl2, 0.2 mM Na3VO4, 1 mM DTT) to a final concentration of 5 μM was added into each well. The compound was diluted with DMSO to a suitable concentration (1 μL/well) or the well contained the corresponding concentration of DMSO (negative control well) Then various kinase recombinant proteins diluted with 49 μL of reaction buffer was added to initiate the reaction. Each experiment required duplicate enzyme-free control well. The reaction was carried out for 1 hour on a 37° C. Shaker (100 rpm). The plate was washed three times with T-PBS. A dilution of the primary antibody PY99 was added (100 μL/well), and the reaction was conducted in a shaker at 37° C. for 0.5 hr. The plate was washed three times with T-PBS. A dilution of the horseradish peroxidase-labeled goat anti-mouse IgG secondary antibody was added (100 μL/well), and the reaction was conducted in a shaker at 37° C. for 0.5 hour. Plate was washed with T-PBS for three times. 2 mg/mL OPD coloration solution (diluted with 0.1 M citric acid-sodium citrate buffer containing 0.03% H2O2 (pH=5.4)) was added (100 μL/well), reacted for 1-10 minutes at 25° C. in dark. The reaction was quenched with 2M H2SO4 (50 μL/well), and read at 490 nm using a tunable microplate reader SPECTRA MAX 190.
(§3) The inhibition ratio of the sample was determined by the following formula: […]
(§4) The IC50 values were obtained via four-parameter regression analysis using the software supplied with the microplate reader.

[2] = target: KDR (Homo sapiens, UniProt P35968); test: as above; assay type: biochemical; settings: 10 nM compound; average of two independent experiments
Sequence of KDR (P35968 20-1356): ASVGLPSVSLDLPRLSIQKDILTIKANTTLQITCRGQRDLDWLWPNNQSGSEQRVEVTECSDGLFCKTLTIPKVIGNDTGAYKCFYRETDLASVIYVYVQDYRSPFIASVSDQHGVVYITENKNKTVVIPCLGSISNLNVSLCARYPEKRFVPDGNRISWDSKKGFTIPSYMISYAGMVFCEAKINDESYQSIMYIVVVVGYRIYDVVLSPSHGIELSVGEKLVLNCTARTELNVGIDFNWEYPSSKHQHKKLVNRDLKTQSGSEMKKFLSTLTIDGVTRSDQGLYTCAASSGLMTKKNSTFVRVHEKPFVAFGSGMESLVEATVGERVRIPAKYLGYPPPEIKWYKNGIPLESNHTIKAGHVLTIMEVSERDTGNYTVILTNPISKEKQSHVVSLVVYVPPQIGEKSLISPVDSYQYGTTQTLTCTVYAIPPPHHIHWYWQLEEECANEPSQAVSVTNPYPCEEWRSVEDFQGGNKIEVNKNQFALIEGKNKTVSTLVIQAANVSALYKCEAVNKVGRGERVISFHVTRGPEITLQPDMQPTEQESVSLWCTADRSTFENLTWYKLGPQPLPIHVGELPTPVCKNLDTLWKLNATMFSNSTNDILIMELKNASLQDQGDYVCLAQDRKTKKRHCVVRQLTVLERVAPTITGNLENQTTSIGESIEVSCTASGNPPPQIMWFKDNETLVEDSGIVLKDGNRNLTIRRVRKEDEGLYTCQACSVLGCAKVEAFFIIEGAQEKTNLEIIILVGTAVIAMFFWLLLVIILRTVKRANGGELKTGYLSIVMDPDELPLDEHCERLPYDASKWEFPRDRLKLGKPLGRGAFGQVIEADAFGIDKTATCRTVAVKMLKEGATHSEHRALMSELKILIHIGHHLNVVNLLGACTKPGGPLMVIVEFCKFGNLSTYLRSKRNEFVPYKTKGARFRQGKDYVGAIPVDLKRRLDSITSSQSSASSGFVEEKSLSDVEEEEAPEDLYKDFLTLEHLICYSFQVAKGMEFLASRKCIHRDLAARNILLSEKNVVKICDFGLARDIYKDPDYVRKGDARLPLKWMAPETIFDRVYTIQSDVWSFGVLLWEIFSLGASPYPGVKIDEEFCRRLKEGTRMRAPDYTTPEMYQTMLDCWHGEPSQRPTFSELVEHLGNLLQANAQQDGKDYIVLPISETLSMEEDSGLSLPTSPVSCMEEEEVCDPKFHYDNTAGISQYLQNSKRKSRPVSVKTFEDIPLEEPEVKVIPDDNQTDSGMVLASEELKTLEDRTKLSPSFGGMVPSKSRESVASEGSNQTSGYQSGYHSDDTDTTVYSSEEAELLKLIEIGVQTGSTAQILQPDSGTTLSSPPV
Experimental: as §1, §2, §3, §4

[3] = target: RET (Homo sapiens, UniProt P07949); test: as above; assay type: biochemical; settings: 10 nM compound; average of two independent experiments
Sequence of RET (P07949 29-1114): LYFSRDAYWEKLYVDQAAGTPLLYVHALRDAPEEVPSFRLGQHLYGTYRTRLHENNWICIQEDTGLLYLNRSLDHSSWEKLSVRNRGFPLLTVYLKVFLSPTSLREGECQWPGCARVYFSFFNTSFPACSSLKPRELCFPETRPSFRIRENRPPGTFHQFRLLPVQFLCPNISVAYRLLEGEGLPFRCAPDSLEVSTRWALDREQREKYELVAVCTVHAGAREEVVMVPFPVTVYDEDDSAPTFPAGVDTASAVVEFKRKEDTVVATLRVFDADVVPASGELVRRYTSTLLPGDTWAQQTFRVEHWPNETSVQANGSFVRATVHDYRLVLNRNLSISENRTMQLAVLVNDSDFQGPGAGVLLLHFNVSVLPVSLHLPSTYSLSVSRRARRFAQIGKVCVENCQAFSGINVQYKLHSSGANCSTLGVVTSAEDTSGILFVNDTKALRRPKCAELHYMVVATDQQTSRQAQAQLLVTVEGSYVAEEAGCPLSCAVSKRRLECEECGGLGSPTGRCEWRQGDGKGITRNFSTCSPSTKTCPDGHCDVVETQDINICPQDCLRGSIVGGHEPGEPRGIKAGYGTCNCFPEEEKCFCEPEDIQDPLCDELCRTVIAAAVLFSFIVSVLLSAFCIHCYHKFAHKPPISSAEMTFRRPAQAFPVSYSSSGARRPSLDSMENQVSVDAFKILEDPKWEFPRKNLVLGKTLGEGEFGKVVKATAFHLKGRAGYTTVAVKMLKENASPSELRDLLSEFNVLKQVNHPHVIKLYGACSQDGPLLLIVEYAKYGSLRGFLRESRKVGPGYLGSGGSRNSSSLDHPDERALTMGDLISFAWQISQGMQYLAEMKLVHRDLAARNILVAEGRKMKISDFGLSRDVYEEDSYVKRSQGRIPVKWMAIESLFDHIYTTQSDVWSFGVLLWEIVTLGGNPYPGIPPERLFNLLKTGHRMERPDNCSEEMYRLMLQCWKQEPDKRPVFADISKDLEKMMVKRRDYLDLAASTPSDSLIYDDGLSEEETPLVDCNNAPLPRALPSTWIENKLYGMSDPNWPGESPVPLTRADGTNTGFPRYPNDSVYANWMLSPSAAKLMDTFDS
Experimental: as §1, §2, §3, §4

[4] = test system: human gastric cancer SNU-16 xenografts; test: Growth of subcutaneous xenografts of human gastric cancer SNU-16 in nude mice (comparative compounds study); settings: for Weight (g, mean ± SD): SNU-16 tumor-bearing mice
Experimental: The tumor tissue in the vigorous growth period was cut into 1.5 mm^3, and inoculated subcutaneously in the right axilla of nude mice under aseptic conditions. The diameter of the xenograft in nude mice was measured with a vernier caliper. The animals were randomly divided into groups when the average tumor volume was grown to about 190 mm^3. […] The diameter of the xenograft was measured twice a week during the entire experiment, and the body weight of the mice was weighed. The tumor volume (TV) was calculated as: TV=½×a×b^2, where a and b represented length and width, respectively. The relative tumor volume (RTV) was calculated based on the measured results, and the formula was: RTV=Vt/V0, wherein V0 represented the tumor volume obtained when the mice was divided and administered (i.e., d0), and Vt represented the tumor volume at each measurement. The anti-tumor activity evaluation index was the relative tumor proliferation rate T/C (%), and the calculation formula was as follows: T/C (%)=(TRTV/CRTV)×100%, wherein TRTV was TRV in treatment group; and CRTV was RTV in negative control group.

Compound: COc1ccc(C#Cc2cccnc2N)cc1C(=O)Nc1ccc(CN2CCN(C)CC2)c(C(F)(F)F)c1 [Example 15]
10 nM inhibition ratio FGFR1 [1]: 59.9
10 nM inhibition ratio KDR [2]: 15.4
10 nM inhibition ratio RET [3]: 61.2

Compound: CN1CCN(Cc2ccc(NC(=O)c3ccc(Cl)c(C#Cc4cc(C5CC5)cnc4N)c3)cc2C(F)(F)F)CC1 [Example 19]
10 nM inhibition ratio FGFR1 [1]: 59.3
10 nM inhibition ratio KDR [2]: 13.2
10 nM inhibition ratio RET [3]: 69.4

Compound: CN1CCN(Cc2ccc(NC(=O)c3ccc(Cl)c(C#Cc4cc(C(F)(F)F)cnc4N)c3)cc2C(F)(F)F)CC1 [Example 20]
10 nM inhibition ratio FGFR1 [1]: 71.1
10 nM inhibition ratio KDR [2]: 23.4
10 nM inhibition ratio RET [3]: 70.8

Compound: CN1CCN(Cc2ccc(NC(=O)c3ccc(Cl)c(C#Cc4cc(OC(F)(F)F)cnc4N)c3)cc2C(F)(F)F)CC1 [Example 23]
10 nM inhibition ratio FGFR1 [1]: 74.1
10 nM inhibition ratio KDR [2]: 33.1
10 nM inhibition ratio RET [3]: 60.0

Compound: CN1CCN(Cc2ccc(NC(=O)c3ccc(Cl)c(C#Cc4cc(OC5CC5)cnc4N)c3)cc2C(F)(F)F)CC1 [Example 24]
10 nM inhibition ratio FGFR1 [1]: 64.1
10 nM inhibition ratio KDR [2]: 23.5
10 nM inhibition ratio RET [3]: 66.1

Compound: CN1CCN(Cc2ccc(NC(=O)c3ccc(Cl)c(C#Cc4cc(OC5COC5)cnc4N)c3)cc2C(F)(F)F)CC1 [Example 25]
10 nM inhibition ratio FGFR1 [1]: 54.5
10 nM inhibition ratio KDR [2]: 33.2
10 nM inhibition ratio RET [3]: 49.9

Compound: CN1CCN(Cc2ccc(NC(=O)c3ccc(Cl)c(C#Cc4cncc(N5CCOCC5)c4)c3)cc2C(F)(F)F)CC1 [HuFGFR1-113]
animal deaths ([4]; SNU-16, 20 mg/kg group): one mouse died on day 20
Relative tumor volume RTV (mean ± SD) ([4]; SNU-16, 20 mg/kg orally once a day, d0): 1.00 ± 0.00
Relative tumor volume RTV (mean ± SD) ([4]; SNU-16, 20 mg/kg orally once a day, d3): 1.12 ± 0.03
Relative tumor volume RTV (mean ± SD) ([4]; SNU-16, 20 mg/kg orally once a day, d7): 0.64 ± 0.23
Relative tumor volume RTV (mean ± SD) ([4]; SNU-16, 20 mg/kg orally once a day, d10): 0.54 ± 0.22
Relative tumor volume RTV (mean ± SD) ([4]; SNU-16, 20 mg/kg orally once a day, d14): 0.92 ± 0.17
Relative tumor volume RTV (mean ± SD) ([4]; SNU-16, 20 mg/kg orally once a day, d17): 1.18 ± 0.42
Relative tumor volume RTV (mean ± SD) ([4]; SNU-16, 20 mg/kg orally once a day, d21): 1.35 ± 0.15
relative tumor proliferation rate T/C ([4]; SNU-16, 20 mg/kg orally once a day, day 21): 23.30%
animal deaths ([4]; SNU-16, 100 mg/kg group): One mouse died on the third day; also recorded: Two mice died on the fifth day
toxicity / condition of the mice (in words) ([4]; SNU-16, 100 mg/kg group): significant toxicity
Relative tumor volume RTV (mean ± SD) ([4]; SNU-16, 100 mg/kg orally once a day (administration interrupted), d0): 1.00 ± 0.00
Relative tumor volume RTV (mean ± SD) ([4]; SNU-16, 100 mg/kg orally once a day (administration interrupted), d3): 1.32 ± 0.40
Relative tumor volume RTV (mean ± SD) ([4]; SNU-16, 100 mg/kg orally once a day (administration interrupted), d7): 0.58 ± 0.02
Relative tumor volume RTV (mean ± SD) ([4]; SNU-16, 100 mg/kg orally once a day (administration interrupted), d10): 0.60 ± 0.02
Relative tumor volume RTV (mean ± SD) ([4]; SNU-16, 100 mg/kg orally once a day (administration interrupted), d14): 0.58 ± 0.35
Relative tumor volume RTV (mean ± SD) ([4]; SNU-16, 100 mg/kg orally once a day (administration interrupted), d17): 1.16 ± 0.86
Relative tumor volume RTV (mean ± SD) ([4]; SNU-16, 100 mg/kg orally once a day (administration interrupted), d21): 1.52 ± /
weight of the tumor-bearing mice (in words) ([4]; SNU-16, HuFGFR1-113 at 20 mg/kg, HuFGFR1-117 dose not stated): decreased significantly
Weight (g, mean ± SD) ([4]; 20 mg/kg orally once a day, d0): 23.2 ± 1.8 g
Weight (g, mean ± SD) ([4]; 20 mg/kg orally once a day, d3): 24.0 ± 1.5 g
Weight (g, mean ± SD) ([4]; 20 mg/kg orally once a day, d7): 22.4 ± 1.8 g
Weight (g, mean ± SD) ([4]; 20 mg/kg orally once a day, d10): 20.2 ± 1.9 g
Weight (g, mean ± SD) ([4]; 20 mg/kg orally once a day, d14): 19.7 ± 2.9 g
Weight (g, mean ± SD) ([4]; 20 mg/kg orally once a day, d17): 20.1 ± 3.7 g
Weight (g, mean ± SD) ([4]; 20 mg/kg orally once a day, d21): 20.3 ± 1.6 g
Weight (g, mean ± SD) ([4]; 100 mg/kg orally once a day (administration interrupted), d0): 23.4 ± 2.7 g
Weight (g, mean ± SD) ([4]; 100 mg/kg orally once a day (administration interrupted), d3): 23.1 ± 2.0 g
Weight (g, mean ± SD) ([4]; 100 mg/kg orally once a day (administration interrupted), d7): 20.7 ± 0.1 g
Weight (g, mean ± SD) ([4]; 100 mg/kg orally once a day (administration interrupted), d10): 22.1 ± 0.4 g
Weight (g, mean ± SD) ([4]; 100 mg/kg orally once a day (administration interrupted), d14): 25.4 ± 1.6 g
Weight (g, mean ± SD) ([4]; 100 mg/kg orally once a day (administration interrupted), d17): 25.5 ± 3.0 g
Weight (g, mean ± SD) ([4]; 100 mg/kg orally once a day (administration interrupted), d21): 21.2 ± / g

The next lines start with the values.

10 nM inhibition ratio FGFR1 [1]: 70.5
10 nM inhibition ratio KDR [2]: 25.2
10 nM inhibition ratio RET [3]: 71.8
Compound: CN1CCN(Cc2ccc(NC(=O)c3ccc(Cl)c(C#Cc4cc(F)cnc4N)c3)cc2C(F)(F)F)CC1 [Example 16]

10 nM inhibition ratio FGFR1 [1]: 68.0
10 nM inhibition ratio KDR [2]: 25.0
10 nM inhibition ratio RET [3]: 73.3
Compound: CN1CCN(Cc2ccc(NC(=O)c3ccc(Cl)c(C#Cc4cc(Cl)cnc4N)c3)cc2C(F)(F)F)CC1 [Example 17]

10 nM inhibition ratio FGFR1 [1]: 65.5
10 nM inhibition ratio KDR [2]: 20.3
10 nM inhibition ratio RET [3]: 58.2
Compound: Cc1cnc(N)c(C#Cc2cc(C(=O)Nc3ccc(CN4CCN(C)CC4)c(C(F)(F)F)c3)ccc2Cl)c1 [Example 18]

10 nM inhibition ratio FGFR1 [1]: 44.3
10 nM inhibition ratio KDR [2]: 32.0
10 nM inhibition ratio RET [3]: 58.1
Compound: CN1CCN(Cc2ccc(NC(=O)c3ccc(Cl)c(C#Cc4cc(C#N)cnc4N)c3)cc2C(F)(F)F)CC1 [Example 21]

10 nM inhibition ratio FGFR1 [1]: 75.1
10 nM inhibition ratio KDR [2]: 24.9
10 nM inhibition ratio RET [3]: 59.3
Compound: COc1cnc(N)c(C#Cc2cc(C(=O)Nc3ccc(CN4CCN(C)CC4)c(C(F)(F)F)c3)ccc2Cl)c1 [Example 22]
